Assay results: patent publication US20240108011A1, “HERBICIDAL COMBINATIONS AND COMPOSITIONS AND METHODS FOR TREATING WEEDS USING THE SAME” (UPL Corporation Limited, priority 2021, published 2024)

Columns and labels:
Assay type in all cases: in vivo
Borreria verticilata = assay: Greenhouse trial, weed control efficacy on Borreria verticilata; conditions: 7 DAA
Experimental: In this example, synergy from the combination of L-glufosinate ammonium (150 gai/ha) and 2,4-D choline (137 gai/ha) on Borrelia verticilata was determined using the calculated percentage efficacy after 7 days of application (DAA). The results are recorded in Table 1 below:
In this example, synergy of the combination of L-glufosinate ammonium (150 gai/ha) and 2,4-D choline (228 gai/ha) on Borrelia verticilata was determined using the calculated percentage efficacy after 7 days of application (DAA).

Eleusine indica = assay: Greenhouse trial, weed control efficacy on Eleusine indica; conditions: Table 3
Experimental: In this example, synergy of the combination of L-glufosinate ammonium (150 gai/ha) and 2,4-D choline (228 gai/ha) on Eleusine indica was determined using the calculated percentage efficacy after 7, 14, 21 and 28 days of application (DAA).

Euphorbia heterophylla = assay: Greenhouse trial, weed control efficacy on Euphorbia heterophylla
Experimental: In this example, synergy of the combination of L-glufosinate ammonium (150 gai/ha) and 2,4-D choline (137 gai/ha) Euphorbia heterophylla was determined using the calculated percentage efficacy after 7, 14, 21 days of application (DAA). The results are recorded in the Table 4 below:
In this example, synergy of using the combination of L-glufosinate ammonium (150 gai/ha) and 2,4-D choline (228 gai/ha) on Euphorbia heterophylla was determined using the calculated percentage efficacy after 14, 21 days of application (DAA).

With C[N+](C)(C)CCO.O=C([O-])COc1ccc(Cl)cc1Cl [2,4-D choline] the “Observed efficacy (%) of 2,4-D choline (137 gai/ha)” value (Borreria verticilata; Table 1, 137 gai/ha) was 30%, the “Observed efficacy (%) of 2,4-D choline (228 gai/ha)” value (Borreria verticilata; Table 2, 228 gai/ha) was 30% and the “Observed efficacy (%) of 2,4-D choline (228 gai/ha)” value (Eleusine indica; 7 DAA) was 10%. The “Observed efficacy (%) of 2,4-D choline (228 gai/ha)” value (Eleusine indica; 14 DAA) was 10%, the “Observed efficacy (%) of 2,4-D choline (228 gai/ha)” value (Eleusine indica; 21 DAA) was 10% and the “Observed efficacy (%) of 2,4-D choline (228 gai/ha)” value (Eleusine indica; 28 DAA) was 5%. The “Observed efficacy (%) of 2,4-D choline (137 gai/ha)” value (Euphorbia heterophylla; Table 4, 7 DAA) was 35%, the “Observed efficacy (%) of 2,4-D choline (137 gai/ha)” value (Euphorbia heterophylla; Table 4, 14 DAA) was 30% and the “Observed efficacy (%) of 2,4-D choline (137 gai/ha)” value (Euphorbia heterophylla; Table 4, 21 DAA) was 25%. For the same compound, the “Observed efficacy (%) of 2,4-D choline (228 gai/ha)” value (Euphorbia heterophylla; Table 5, 14 DAA) was 30% and the “Observed efficacy (%) of 2,4-D choline (228 gai/ha)” value (Euphorbia heterophylla; Table 5, 21 DAA) was 30%.

With CP(=O)(O)CC[C@H](N)C(=O)O.N [L-glufosinate ammonium, ammonium (2S)-2-amino-4-(methylphosphinato)butyric acid] the “Observed efficacy (%) of L-glufosinate ammonium (150 gai/ha)” value (shortened to “Observed efficacy (%) … (150 gai/ha)”) (Borreria verticilata; Table 1) was 65%, the “Observed efficacy (%) … (150 gai/ha)” value (Borreria verticilata; Table 2) was 65% and the “Observed efficacy (%) … (150 gai/ha)” value (Eleusine indica; 7 DAA) was 70%. The “Observed efficacy (%) … (150 gai/ha)” value (Eleusine indica; 14 DAA) was 65%, the “Observed efficacy (%) … (150 gai/ha)” value (Eleusine indica; 21 DAA) was 60% and the “Observed efficacy (%) … (150 gai/ha)” value (Eleusine indica; 28 DAA) was 50%. The “Observed efficacy (%) … (150 gai/ha)” value (Euphorbia heterophylla; Table 4, 7 DAA) was 95%, the “Observed efficacy (%) … (150 gai/ha)” value (Euphorbia heterophylla; Table 4, 14 DAA) was 98% and the “Observed efficacy (%) … (150 gai/ha)” value (Euphorbia heterophylla; Table 4, 21 DAA) was 98%. The “Observed efficacy (%) … (150 gai/ha)” value (Euphorbia heterophylla; Table 5, 14 DAA) was 98% and the “Observed efficacy (%) … (150 gai/ha)” value (Euphorbia heterophylla; Table 5, 21 DAA) was 98%.
